This note sets out measurements from patent publication US5686486A, “4-hydroxy-benzopyran-2-ones and 4-hydroxy-cycloalkyl[b]pyran-2-ones useful to treat retroviral infections” (priority 1995, dated 1997).

Molecules are shown by their SMILES. “And” between values parts separate entries of the source, which are not always exact repeats. Identical values can stand only once.

The target of experiment [1] is T1, HIV-1 protease (Human immunodeficiency virus type 1 group M subtype B, UniProt P04585). As to the kind of experiment: biochemical. The conditions noted are these: for inhibition at 0.123 µM: read-out: HIV-1 Protease % Inhib, dose 0.123 uM; for inhibition at 0.37 µM: read-out: HIV-1 Protease % Inhib, dose 0.370 uM; for inhibition at 1.1 µM: read-out: HIV-1 Protease % Inhib, dose 1.100 uM; for inhibition at 3.3 µM: read-out: HIV-1 Protease % Inhib, dose 3.300 uM; for inhibition at 10 µM: read-out: HIV-1 Protease % Inhib, dose 10.000 uM; for inhibition at 30 µM: read-out: HIV-1 Protease % Inhib, dose 30.000 uM; for inhibition at 0.41 µM: read-out: HIV-1 Protease % Inhib, dose 0.410 uM; for inhibition at 1.23 µM: read-out: HIV-1 Protease % Inhib, dose 1.230 uM; for inhibition at 3.7 µM: read-out: HIV-1 Protease % Inhib, dose 3.700 uM; for inhibition at 11 µM: read-out: HIV-1 Protease % Inhib, dose 11.000 uM; for inhibition at 33 µM: read-out: HIV-1 Protease % Inhib, dose 33.000 uM; for inhibition at 100 µM: read-out: HIV-1 Protease % Inhib, dose 100.000 uM. The method in brief:
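Biotinylated, FITC-labeled peptide substrate (20 μl of 0.2 μM) incubated with HIV-1 protease (10 μl of 0.1 μM) and compound in 0.1 M sodium acetate pH 5.5, 1.0 M NaCl, 0.05% NP-40, 1 h, room temperature, dark. Streptavidin beads then capture uncleaved substrate; filtered labeled product read by fluorescence, giving percent inhibition.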

In experiment [2] the target is T1, HIV-1 protease. As to the kind of experiment: biochemical. The conditions noted are these: read-out: HIV-1 FITC KI. The method in brief: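 Ki from two-fold serial inhibitor dilutions (24–48 concentrations) with 40 nM HIV-1 protease stock and 200 μM substrate stock, 90 min at room temperature; stopped with avidin beads. Reference inhibitor run in parallel; Ki by nonlinear least-squares fit.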

A word on the Ki: it is a dissociation constant, usually derived from enzyme kinetics or from competition with a known ligand. In the case of `Cc1cncc(S(=O)(=O)Nc2cccc(C(c3c(O)c4c(oc3=O)CCCCCC4)C3CC3)c2)c1` (stereo not drawn) [Example 315, N-[3-[Cyclopropyl(5,6,7,8,9,10-hexahydro4-hydroxy-2-oxo-2H-cycloocta[b]pyran-3-yl)methyl]phenyl]-5-methyl-3-pyridinesulfonamide], at HIV-1 protease [1], the inhibition at 0.123 µM was determined as 80.7%, the inhibition at 0.37 µM was 94.7%, the inhibition at 1.1 µM came out at 91.9% and the inhibition at 3.3 µM stood at 95.2%. For the same molecule, at HIV-1 protease [1], the inhibition at 10 µM worked out at 86.7% and the inhibition at 30 µM was determined as 81.4%. On HIV-1 protease [2], the Ki came to 2.58 nM.
Consider `CC(C)N=C(Nc1cccc(C(c2c(O)c3c(oc2=O)CCCCCC3)C2CC2)c1)NC(C)C` (stereo not drawn) [Example 120, N-(3-(cyclopropyl-(4-hydroxy-2-oxo-5,6,7,8,9,10-hexahydro-2H-cycloocta[b]pyran-3-yl)-methyl)-phenyl)-N',N"-diisopropyl-guanidine], for which, at HIV-1 protease [1], the inhibition at 0.41 µM was less than 10%, the inhibition at 1.23 µM was found to be 22.2%, the inhibition at 3.7 µM turned out to be 54.6% and the inhibition at 11 µM was 80.7%. In addition, on HIV-1 protease [1], the inhibition at 33 µM was determined as 101% and the inhibition at 100 µM was 106%. In addition, the inhibition constant Ki on HIV-1 protease [2] came out at 982 nM.
`CCCC(c1cccc(NS(=O)(=O)c2ccc(C#N)cc2)c1)c1c(O)c2c(oc1=O)CCCCCC2` (single isomer, unassigned) [Example 437, (R or S)-Benzenesulfonamide, 4-cyano-N-[3-[1-(5,6,7,8,9,10-hexahydro-4-hydroxy-2-oxo-2H-cycloocta[b]pyran-3-yl)butyl]phenyl]-]: on HIV-1 protease [1], the inhibition at 0.123 µM was found to be 68.1%, the inhibition at 0.37 µM amounted to 87.1%, the inhibition at 1.1 µM came to 103% and the inhibition at 3.3 µM turned out to be 108%. On HIV-1 protease [1], the inhibition at 10 µM is 112% and the inhibition at 30 µM was 105%. Also, the Ki on HIV-1 protease [2] turned out to be 2.3 nM.
Consider `O=c1oc2c(c(O)c1C(c1cccc(NS(=O)(=O)CCc3ccccc3)c1)C1CC1)CCCCCC2` (stereo not drawn) [Example 346, N-[3-[Cyclopropyl(5,6,7,8,9,10-hexahydro-4-hydroxy-2-oxo-2H-cycloocta[b]pyran-3-yl)methyl]phenyl]-benzeneethanesulfonamide], for which, at HIV-1 protease [1], the inhibition at 0.123 µM was found to be 75.1%, the inhibition at 0.37 µM turned out to be 92.5%, the inhibition at 1.1 µM is 97.3% and the inhibition at 3.3 µM was found to be 102%. In addition, at HIV-1 protease [1], the inhibition at 10 µM stood at 103% and the inhibition at 30 µM is 97%. On HIV-1 protease [2], the inhibition constant Ki stood at 3.85 nM.
On to `O=C(Nc1cccc(C(c2c(O)c3c(oc2=O)CCCCCC3)C2CC2)c1)c1ccc(F)cc1` (stereo not drawn) [Example 210, Benzamide, N-[3-[cyclopropyl(5,6,7,8,9,10-hexahydro4-hydroxy-2-oxo-2H-cycloocta[b]pyran-3-yl)methyl]phenyl]-4-fluoro-], for which, at HIV-1 protease [1], the inhibition at 0.123 µM came out at 19.7%, the inhibition at 0.37 µM is 31.5%, the inhibition at 1.1 µM worked out at 58.1% and the inhibition at 3.3 µM stood at 77.6%. In addition, at HIV-1 protease [1], the inhibition at 10 µM amounted to 88.8% and the inhibition at 30 µM amounted to 97.3%. Besides, the Ki at HIV-1 protease [2] was determined as 55 nM.
Consider `O=c1oc2c(c(O)c1C(c1ccccc1)C1CC1)CCCCCC2CC1CCOC1` (stereo not drawn) [Example 133, 3-(Cyclopropyl-phenyl-methyl)-4-hydroxy-10-(tetrahydro-furan-3-ylmethyl)-5,6,7,8,9,10-hexahydro-cycloocta[b]pyran-2-one], for which, at HIV-1 protease [1], the inhibition at 0.123 µM was determined as 19.1%, the inhibition at 0.37 µM amounted to 71.2%, the inhibition at 1.1 µM is 97.9% and the inhibition at 3.3 µM stood at 101%. Moreover, at HIV-1 protease [1], the inhibition at 10 µM amounted to 101% and the inhibition at 30 µM amounted to 99.5%. Moreover, the Ki at HIV-1 protease [2] worked out at 12 nM.
Regarding `CCC(c1ccccc1)c1c(O)c2c(oc1=O)C(C)CCCCC2` (stereo not drawn) [Example 126, 4-Hydroxy-10-methyl-3-(1-phenyl-propyl)-5,6,7,8,9,10-hexahydro-cycloocta[b]pyran-2-one], on HIV-1 protease [1], the inhibition at 0.41 µM stood at 25.9%, the inhibition at 1.23 µM was determined as 59%, the inhibition at 3.7 µM is 89.8% and the inhibition at 11 µM is 96.7%. For the same molecule, at HIV-1 protease [1], the inhibition at 33 µM was found to be 100% and the inhibition at 100 µM stood at 95%. Further, the Ki at HIV-1 protease [2] was found to be 331 nM.
Turning to `O=c1oc2c(c(O)c1[C@H](c1cccc(NS(=O)(=O)c3ccc(S(=O)(=O)c4ccccc4)s3)c1)C1CC1)CCCCCC2` [Example 404], at HIV-1 protease [1], the inhibition at 0.123 µM amounted to 58.3%, the inhibition at 0.37 µM is 85.3%, the inhibition at 1.1 µM was determined as 103% and the inhibition at 3.3 µM was found to be 108%. Further, on HIV-1 protease [1], the inhibition at 10 µM was found to be 106% and the inhibition at 30 µM worked out at 103%. In addition, on HIV-1 protease [2], the inhibition constant Ki stood at 2.87 nM.
Take `CCCCCCCCS(=O)(=O)Nc1cccc(C(c2c(O)c3c(oc2=O)CCCCCC3)C2CC2)c1` (stereo not drawn) [Example 343, N-[3-[Cyclopropyl(5,6,7,8,9,10-hexahydro-4-hydroxy-2-oxo-2H-cycloocta[b]pyran-3-yl)methyl]phenyl]-1-octanesulfonamide]: on HIV-1 protease [1], the inhibition at 0.123 µM was 39.4%, the inhibition at 0.37 µM came to 75%, the inhibition at 1.1 µM stood at 91.2% and the inhibition at 3.3 µM came to 104%. Besides, on HIV-1 protease [1], the inhibition at 10 µM came to 112% and the inhibition at 30 µM worked out at 105%. For the same molecule, the Ki at HIV-1 protease [2] was determined as 6 nM.
For the molecule `CCCC(c1cccc(NS(=O)(=O)c2cccc3cccnc23)c1)c1c(O)c2c(oc1=O)CCCCCC2` (stereo not drawn) [Example 432, 8-Quinolinesulfonamide, N-[3-[1-(5,6,7,8,9,10-hexahydro4-hydroxy-2-oxo-2H-cycloocta[b]pyran-3-yl)butyl]phenyl]-], at HIV-1 protease [1], the inhibition at 0.123 µM was 101%, the inhibition at 0.37 µM was determined as 104%, the inhibition at 1.1 µM worked out at 111% and the inhibition at 3.3 µM was determined as 109%. On HIV-1 protease [1], the inhibition at 10 µM was determined as 107% and the inhibition at 30 µM was 98%. For the same molecule, on HIV-1 protease [2], the Ki turned out to be 1.65 nM.
With `CC(C)(C)OC(=O)N[C@@H](Cc1c[nH]cn1)C(=O)Nc1cccc(C(c2c(O)c3c(oc2=O)CCCCCC3)C2CC2)c1` (single isomer, unassigned) [Example 240, Carbamic acid, [2-[[3-(R or S)-[cyclopropyl(5,6,7,8,9,10-hexahydro-4-hydroxy-2-oxo-2H-cycloocta[b]pyran-3-yl)methyl]phenyl]amino]-1-(S)-(1H-imidazol-4-ylmethyl)-2-oxoethyl]-, 1,1 dimethyl ethyl ester], the “HIV-1 Protease % Inhib” value came to 54.87% on HIV-1 protease [1] (dose 0.123 uM); 89.42% on HIV-1 protease [1] (dose 0.370 uM); 111.38% on HIV-1 protease [1] (dose 1.100 uM); 113.39% on HIV-1 protease [1] (dose 3.300 uM); 114.19% at HIV-1 protease [1] (dose 10.000 uM); 109.5% at HIV-1 protease [1] (dose 30.000 uM). At HIV-1 protease [2], the Ki is 4.2 nM and 5 nM.
For the molecule `O=c1oc2c(c(O)c1C(c1cccc(NS(=O)(=O)c3ccc(NO)cc3)c1)C1CC1)CCCCCC2` (stereo not drawn) [Example 348 (Second Title Compound), N-[3-[cyclopropyl(5,6,7,8,9,10-hexahydro-4-hydroxy-2-oxo-2H-cycloocta[b]pyran-3-yl)methyl]phenyl]4-(hydroxyamino)-benzenesulfonamide], on HIV-1 protease [1], the inhibition at 0.123 µM was 38.6%, the inhibition at 0.37 µM turned out to be 81%, the inhibition at 1.1 µM was determined as 102% and the inhibition at 3.3 µM is 109%. Further, at HIV-1 protease [1], the inhibition at 10 µM was 113% and the inhibition at 30 µM amounted to 98.7%. Besides, at HIV-1 protease [2], the Ki stood at 1.7 nM.
